The values below come from patent US12729404B2, “Method and kit for testing drug hypersensitivity reactions caused by sulfonamide derivative-based antiepileptic drug and use of the kit” (CHANG GUNG MEMORIAL HOSPITAL, LINKOU, priority 2020, dated 2026).

SMILES strings stand for the structures.

Holding throughout (conditions): in vivo
The target of data set [1] is T1, HLA-B*13:01 (Homo sapiens, UniProt P01889, A65T/A93T/A95T/D138N/D201E/D98Y/E176V/E204Q/E69M/E70A/G107R/K202T/L105A/L119I/N104T/N87E/Q94N/R106L/R155S/R169L/R180L/S101N/S121R/S35A/S48T/T118I/V127L/V36M/Y140L/Y91S).
The target in data set [2] is T1, HLA-B*13:01. The source holds these as a separate data set.
The test system of the next data set is HLA-B*51:01 or B*51:02.

With `NS(=O)(=O)Cc1noc2ccccc12` [zonisamide], at HLA-B*13:01 [1], the “Cases N (allele carriers / patients)” value is reported as 5/7 and the OR is given as 19.3. Also, at HLA-B*13:01 [2], the “DHR (%) carrying the allele” value came out at 100%, the “DHR N (allele carriers / patients)” value is on record as 3/3, the Sensitivity came out at 100.00% and the Specificity was 88.52%. In addition, in the data set on HLA-B*51:01 or B*51:02, the “Cases N (allele carriers / patients)” value is listed as 4/7 and the OR stood at 8.3.
